Test results: paper PMC7782785, “Outer-membrane-acting peptides and lipid II-targeting antibiotics cooperatively kill Gram-negative pathogens” (Communications Biology, 2021)
Values after ≈ are worked out from the molar mass of the structure shown. Where a SMILES comes first, the peptide text is derived from it. Where no end group is shown, it is not given here. [ ]: non-standard residue; d: D form.

How the values were obtained:
P. aeruginosa LMG 6395 [1] = test: microbe, parasite or virus in culture
Description: (§1) MIC tests were performed in triplicate by liquid growth inhibition microdilution assays in sterile polypropylene microtiter plates according to the Clinical and Laboratory Standards Institute (CLSI) guideline for bacteria that grow aerobically. Briefly, the indicator strains were first streaked on the appropriate agar plate, and then single colonies were picked and incubated overnight in liquid broth. The final inoculum of bacteria was 5*10^5 CFU/mL prepared in CAMHB (cationic adjusted Mueller–Hinton broth, Sigma-Aldrich) or CAMHB plus 5% of lysed horse blood (TCS Biosciences, Buckingham, UK) in the case of S. pneumoniae. The antimicrobials were 2-fold serially diluted and 50 µL diluted bacterial suspension was added to each well to make the final volume 100 µL. The microtiter plates and the count plates were incubated at 37 °C for 16–20 h without shaking. Growth inhibition was assessed by measuring the OD600 using a microplate reader (Tecan Infinity F200). The lowest concentration of the antimicrobials that inhibits visible growth of the indicator strain is identified as the MIC value.
(§2) The condition for the tests and the analysis of the plates were performed as described above for the MIC tests.

A. baumannii LMG 01041 [2] = test: microbe, parasite or virus in culture
Description: as §1, §2

K. pneumoniae LMG 20218 [3] = test: microbe, parasite or virus in culture
Description: as §1, §2

E. aerogenes LMG 02094 [4] = test: microbe, parasite or virus in culture
Description: as §1, §2

E. coli LMG 15862 [5] = test: microbe, parasite or virus in culture
Description: as §1, §2

[6] = tested on: human red blood cells (hRBCs); details: cited from earlier work
[7] = tested on: human red blood cells (hRBCs); test: Hemolytic activity; details: 1 h
Description: (§3) Hemolytic activity was determined with fresh human red blood cells (hRBCs)[28]. The hRBCs were centrifuged (1000×g, 5 min) and the supernatant was discarded. The pellets were washed three times with PBS and diluted in PBS to make the cell stock solution with a cell density of 2*10^8 cells/mL. […] 1% Triton X-100 and PBS were used as controls. The cells were incubated at 37 °C for 1 h and centrifuged at 2000 rpm for 5 min. The supernatant was transferred to a new 96-well plate and hemolysis was monitored by measuring the absorbance at 450 nm (OD450). Hemolysis levels were calculated as percentage. % hemolysis = 100 × (As−A0)/(At−A0), where As, A0, and At are the absorbance of the hRBCs suspension in PBS with antimicrobial agents (As), without antimicrobial agents (A0), and with 1% Triton X-100 (At). […] For the TI calculation (TI = MHC/GM), other factors as the GM (geometric mean of MIC value of all the Gram-negative strains tested) were calculated.

[8] = tested on: all the Gram-negative strains tested; test: organism not typed
Description: as §1, §2
as §3, with “The cells were incubated at 37 °C for 1 h and centrifuged at 2000 rpm for 5 min.” left out

S. pneumoniae R6 = test: MIC, broth microdilution; type: cell-based; details: S. pneumoniae R6 (Gram-positive); compound alone; CAMHB plus 5% lysed horse blood
Description: as §1

HEK-293 cells = test: Cytotoxicity, cell viability (CellTiter-Glo); details: all the concentrations tested (up to 88 µM)
Description: 96-well plates were seeded with HEK-293 cells at a concentration of 3*10^5 cells/well in 100 µL of DMEM growth medium supplemented with 1% NEAA and 10% FBS. Border wells were filled with 100 µL of sterile PBS. […] ATP levels were measured by adding 50 µL of CellTiter-Glo reagent (Promega, Madison, US) to each well, and luminescence was measured with a SpectraMax i3 microplate reader after 5 minutes of incubation. The potential effect of the tested compounds on cell viability was determined by comparing the signal obtained in the presence of different concentrations of the compounds with those obtained in the control wells. All these tests were performed in triplicate.

S. aureus LMG8224 = type: cell-based
Description: as §1

E. faecium LMG16003 = type: cell-based
Description: as §1

E. faecalis V583 = type: cell-based
Description: as §1

[9] = human plasma (EDTA K2), 3.2 mM peptide, 37 °C, 200 rpm, samples at 1, 3, 6 h; read-out halo size in spot-on-lawn against K. pneumoniae LMG 20218; triplicate
Description: For plasma stability, the peptides were lyophilized and resuspended in plasma or PBS (as a control) at a final concentration of 3.2 mM. After that, the peptides were incubated with shaking (200 rpm) during 6 h at 37 °C. At time 1, 3, and 6 h, 10 µL samples were tested against K. pneumoniae LMG 20218 by a spot-on-lawn test. Reduction in the size of the halo was related to the degradation of the peptide. The test was performed in triplicate.

P. aeruginosa LMG 6395 [10] = tested on: P. aeruginosa LMG 6395
Description: (§4) For the synergy test, standard checkerboard broth microdilution assays were conducted to test the synergistic effect of combined antimicrobials using the same condition as before[51],[56]. […] The initial concentration of both peptides was their individual MIC. 50 µL fresh bacterial suspension prepared as above was added to the wells already containing the antimicrobial compound mixture to achieve 100 µL final volume per well.
(§5) The fractional inhibitory concentration (FIC) indices[57] were calculated using the formula FICI = FICa + FICb = MICac/MICa + MICbc/MICb, to determine whether the combination is additive, synergistic or antagonistic[51],[57]. The MICa and MICb is the MIC of compound A or B alone, respectively. MICac is the MIC of compound A in combination with compound B and MICbc is the MIC of compound B when it was combined with compound A. The FIC corresponds to the MIC of a compound in combination with the other compound, divided by the MIC of the compound alone. FICa is FIC of compound A while FICb is FIC of compound B. The FICI was interpreted according to EUCAST[58] as follows: synergistic, FICI ≤ 0.5; additive,0.5 < FICI ≤ 1; indifferent, 1 < FICI < 2; antagonistic, FICI ≥ 2.
as §2

A. baumannii LMG 01041 [11] = tested on: A. baumannii LMG 01041
Description: as §4, §5, §2

K. pneumoniae LMG 20218 [12] = details: LMG 20218
Description: as §4, §5, §2

E. aerogenes LMG 02094 [13] = tested on: E. aerogenes LMG 02094
Description: as §4, §5, §2

E. coli LMG 15862 [14] = tested on: E. coli LMG 15862
Description: as §4, §5, §2

[15] = compound alone, CLSI broth microdilution, CAMHB, 5*10^5 CFU/mL, 37 °C, 16–20 h, OD600, triplicate

Compound | MIC (P. aeruginosa LMG 6395 [1]; LMG 6395) [µM] | MIC (A. baumannii LMG 01041 [2]; LMG 01041) [µM] | MIC (K. pneumoniae LMG 20218 [3]; LMG 20218) [µM] | MIC (E. aerogenes LMG 02094 [4]; LMG 02094) [µM] | MIC (E. coli LMG 15862 [5]; LMG 15862) [µM] | further results
KIVQRIKKWLR-NH2 [L-12] | 16 | 128 | 32 | 256 | 16 | –
KRIVQRIKKWLR-NH2 [L-8] | 16 | 16 | 64 | 32 | 4 | hemolytic activity [6]: very low hemolytic activity
RIRKRIKKWLR-NH2 [L-14] | 16 | >256 | >256 | >256 | 16 | –
VDKPPYLPRPRPPRRIYNR [L-2] | >64 | 16 | 8 | >64 | 4 | –
CC[C@@H](C)[C@@H](NC(=O)[C@H](N)CCCNC(=N)N)C(=O)N[C@@H](C(=O)N[C@H](CCC(N)=O)C(=O)N[C@H](CCCNC(=N)N)C(=O)N[C@@H](C(=O)N[C@H](CCCCN)C(=O)N[C@H](CCCCN)C(=O)N[C@H](Cc1c[nH]c2ccccc12)C(=O)N[C@H](CC(C)C)C(=O)N[C@H](CCCNC(=N)N)C(N)=O)[C@H](C)CC)C(C)C [D-11] (H-[dR][dI][dV][dQ][dR][dI][dK][dK][dW][dL][dR]-NH2) | 16 (≈ 23.9 µg/mL) | 8 (≈ 12 µg/mL) | 32 (≈ 47.8 µg/mL) | 32 (≈ 47.8 µg/mL) | 4 (≈ 5.98 µg/mL) | TI, therapeutic index (MHC/GM) [7]: 39.03; MHC, minimal hemolytic concentration that caused 10% hemolysis of hRBCs ([7]; red cells of human): 1200 µM; MHA, mean hemolytic activity ([7]; red cells of human, 50 µM): 0%; MHA, mean hemolytic activity ([7]; red cells of human, 100 µM): 0%; MHA, mean hemolytic activity ([7]; red cells of human, 200 µM): 0%; MHA, mean hemolytic activity ([7]; red cells of human, 400 µM): 0%; MHA, mean hemolytic activity ([7]; red cells of human, 600 µM): 0%; GM, MIC geometric mean against all the Gram-negative strains tested [8]: 30.75 µM; MIC (S. pneumoniae R6): > 85 µM; effect on viability of HEK-293 cells (HEK-293 cells): did not affect the viability; MIC (S. aureus LMG8224): > 85 µM; MIC (E. faecium LMG16003): 10.6 µM (≈ 15.8 µg/mL); MIC (E. faecalis V583): 64 µM (≈ 95.7 µg/mL); stability in plasma [9]: completely resistant to degradation in plasma; FICI, peptide + nisin (P. aeruginosa LMG 6395 [10]): 0.156; FICI, peptide + nisin (A. baumannii LMG 01041 [11]): 0.094; FICI, peptide + nisin (K. pneumoniae LMG 20218 [12]): 0.078; FICI, peptide + nisin (E. aerogenes LMG 02094 [13]): 0.188; FICI, peptide + nisin (E. coli LMG 15862 [14]): 0.375
RRLFRRILRWL-NH2 [L-6] | – | – | – | – | – | MIC (P. aeruginosa LMG 6395 [1]; [15]): 3 µM; MIC (A. baumannii LMG 01041 [2]; [15]): 2 µM; MIC (K. pneumoniae LMG 20218 [3]; [15]): 4 µM; MIC (E. aerogenes LMG 02094 [4]; [15]): 8 µM; MIC (E. coli LMG 15862 [5]; [15]): 2 µM; hemolytic activity in previous studies [6]: rather high hemolytic activity
CC[C@@H](C)[C@@H](NC(=O)[C@@H](CCCCN)NC(=O)[C@@H](CCCCN)NC(=O)[C@@H](Cc1c[nH]c2ccccc12)NC(=O)[C@@H](CC(C)C)NC(=O)[C@H](N)CCCNC(=N)N)C(=O)N[C@H](CCCNC(=N)N)C(=O)N[C@H](CCC(N)=O)C(=O)N[C@@H](C(=O)N[C@@H](C(=O)N[C@H](CCCNC(=N)N)C(N)=O)[C@H](C)CC)C(C)C [D-11R] (H-[dR][dL][dW][dK][dK][dI][dR][dQ][dV][dI][dR]-NH2) | 16 (≈ 23.9 µg/mL) | 64 (≈ 95.7 µg/mL) | 32 (≈ 47.8 µg/mL) | 32 (≈ 47.8 µg/mL) | 8 (≈ 12 µg/mL) | stability in plasma [9]: completely resistant to degradation in plasma; FICI, peptide + nisin (P. aeruginosa LMG 6395 [10]): 0.188; FICI, peptide + nisin (A. baumannii LMG 01041 [11]): 0.188; FICI, peptide + nisin (K. pneumoniae LMG 20218 [12]): 0.125; FICI, peptide + nisin (E. aerogenes LMG 02094 [13]): 0.188; FICI, peptide + nisin (E. coli LMG 15862 [14]): 0.375
RIVQRIKKWL-NH2 [L-10] | 16 | 128 | 64 | >256 | 32 | –
AIVQRIKKWLR-NH2 [L-13] | 16 | 128 | 24 | 128 | 12 | –
RIVQRIKKWLR-NH2 [L-11] | 16 | >64 | 32 | 128 | 12 | stability in plasma [9]: almost completely degraded within the first 3 h; FICI, peptide + nisin (A. baumannii LMG 01041 [11]): 0.063

The next lines start with results.

MIC (P. aeruginosa LMG 6395 [1]; LMG 6395) [µM] | MIC (A. baumannii LMG 01041 [2]; LMG 01041) [µM] | MIC (K. pneumoniae LMG 20218 [3]; LMG 20218) [µM] | MIC (E. aerogenes LMG 02094 [4]; LMG 02094) [µM] | MIC (E. coli LMG 15862 [5]; LMG 15862) [µM] | Compound | further results
3 | 2 | 6 | 5 | 3 | RIWVIWRR-NH2 [L-5] | –
32 | 8 | 16 | >32 | 3 | VDKGSYLPRPTPPRPIYNRN-NH2 [L-3] | –
32 | >256 | >256 | >256 | 24 | RIKRRIKKWLR-NH2 [L-15] | –
>64 | >64 | 5 | 8 | 0.5 | GNNRPVYIPQPRPPHPRL [L-1] | –
>128 | >128 | >256 | >256 | 64 | RLLFRKIRRLKR [L-4] | –
13 | 2 | 12 | 8 | 6 | GIGKHVGKALKGLKGLLKGLGEC [L-7] | –
>256 | >256 | >256 | >256 | 256 | RIVQRIKKWR-NH2 [L-9] | –
